System: A498 complex spheroids with HUVEC/MSC, growth
Assay: Anticancer human tumor A498 cell line growth inhibition [AhR];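 further: seven day exposure starting three days after spheroid seeding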;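 on viability, T/C: luminescence signal used as a surrogate for viable cells; luminescence viability scaled so 100% equals DMSO vehicle wells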
Conditions: for IC50: curve of first compound; for viability, T/C: stronger effect = lower value
Method in brief: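 Complex tumor spheroids co-cultured with HUVEC and human MSC stroma; AhR antagonists tested in combination with standard-of-care and investigational agents. Top concentration at or near clinical Cmax (else 10 microM), half-log dilutions; growth expressed as percent test/control.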

[1] = second compound 0.1 µM, first compound 0.0316 µM
[2] = second compound 0.1 µM, first compound 0.1 µM
[3] = second compound 0.1 µM, first compound 0.316 µM
[4] = second compound 0.1 µM, first compound 1 µM
[5] = second compound 0.1 µM, first compound 3.16 µM
[6] = second compound 0.1 µM, first compound 10 µM
[7] = second compound 0.316 µM, first compound 0.0316 µM
[8] = second compound 0.316 µM, first compound 0.1 µM
[9] = second compound 0.316 µM, first compound 0.316 µM
[10] = second compound 0.316 µM, first compound 1 µM
[11] = second compound 0.316 µM, first compound 3.16 µM
[12] = second compound 0.316 µM, first compound 10 µM
[13] = second compound 1 µM, first compound 0.0316 µM
[14] = second compound 1 µM, first compound 0.1 µM
[15] = second compound 1 µM, first compound 0.316 µM
[16] = second compound 1 µM, first compound 1 µM
[17] = second compound 1 µM, first compound 3.16 µM
[18] = second compound 1 µM, first compound 10 µM
[19] = second compound 3.16 µM, first compound 0.0316 µM
[20] = second compound 3.16 µM, first compound 0.1 µM
[21] = second compound 3.16 µM, first compound 0.316 µM
[22] = second compound 3.16 µM, first compound 1 µM
[23] = second compound 3.16 µM, first compound 3.16 µM
[24] = second compound 3.16 µM, first compound 10 µM
[25] = second compound 10 µM, first compound 0.0316 µM
[26] = second compound 10 µM, first compound 0.1 µM
[27] = second compound 10 µM, first compound 0.316 µM
[28] = second compound 10 µM, first compound 1 µM
[29] = second compound 10 µM, first compound 3.16 µM
[30] = second compound 10 µM, first compound 10 µM

## CC(C)c1c(-c2ccccc2)nc2c(C#N)c[nH]n2c1=O + Cc1ccccc1N=Nc1ccc(NC(=O)c2ccnn2C)c(C)c1
Second compound 0.1 µM
  IC50: > 10000 nM
Second compound 0.316 µM
  IC50: > 10000 nM
Second compound 1 µM
  IC50: > 10000 nM
Second compound 3.16 µM
  IC50: > 10000 nM
Second compound 10 µM
  IC50: > 10000 nM
[1]
  viability, T/C: 78.9%
[2]
  viability, T/C: 84.9%
[3]
  viability, T/C: 83.2%
[4]
  viability, T/C: 81.8%
[5]
  viability, T/C: 80.2%
[6]
  viability, T/C: 84.2%
[7]
  viability, T/C: 87.7%
[8]
  viability, T/C: 88.5%
[9]
  viability, T/C: 89.7%
[10]
  viability, T/C: 85.9%
[11]
  viability, T/C: 82.8%
[12]
  viability, T/C: 89.5%
[13]
  viability, T/C: 80.1%
[14]
  viability, T/C: 74.6%
[15]
  viability, T/C: 86.8%
[16]
  viability, T/C: 78.1%
[17]
  viability, T/C: 76.7%
[18]
  viability, T/C: 77.5%
[19]
  viability, T/C: 77.2%
[20]
  viability, T/C: 79.2%
[21]
  viability, T/C: 79.6%
[22]
  viability, T/C: 76.8%
[23]
  viability, T/C: 72.7%
[24]
  viability, T/C: 78.1%
[25]
  viability, T/C: 80.2%
[26]
  viability, T/C: 81.7%
[27]
  viability, T/C: 74.3%
[28]
  viability, T/C: 81%
[29]
  viability, T/C: 71.8%
[30]
  viability, T/C: 74.1%

## CC1COCCN1c1cc(-c2ccnn2C)c2ccnc(-c3ccn[nH]3)c2n1 (stereo not given) + Cc1ccccc1N=Nc1ccc(NC(=O)c2ccnn2C)c(C)c1
Second compound 0.1 µM
  IC50: 21.9 nM
Second compound 0.316 µM
  IC50: 50.3 nM
Second compound 1 µM
  IC50: 84.9 nM
Second compound 3.16 µM
  IC50: 97 nM
Second compound 10 µM
  IC50: 84.7 nM
Second compound 0.1 µM, first compound 0.00316 µM
  viability, T/C: 71.7%
Second compound 0.1 µM, first compound 0.01 µM
  viability, T/C: 54.4%
[1]
  viability, T/C: 49.7%
[2]
  viability, T/C: 34.2%
[3]
  viability, T/C: 25.1%
[4]
  viability, T/C: 15.7%
Second compound 0.316 µM, first compound 0.00316 µM
  viability, T/C: 71.2%
Second compound 0.316 µM, first compound 0.01 µM
  viability, T/C: 86.6%
[7]
  viability, T/C: 58.8%
[8]
  viability, T/C: 33.9%
[9]
  viability, T/C: 17.8%
[10]
  viability, T/C: 17.8%
Second compound 1 µM, first compound 0.00316 µM
  viability, T/C: 87.5%
Second compound 1 µM, first compound 0.01 µM
  viability, T/C: 94.8%
[13]
  viability, T/C: 74.7%
[14]
  viability, T/C: 47.4%
[15]
  viability, T/C: 16.4%
[16]
  viability, T/C: 12.9%
Second compound 3.16 µM, first compound 0.00316 µM
  viability, T/C: 94.7%
Second compound 3.16 µM, first compound 0.01 µM
  viability, T/C: 87.7%
[19]
  viability, T/C: 84.3%
[20]
  viability, T/C: 47.9%
[21]
  viability, T/C: 20.8%
[22]
  viability, T/C: 11.1%
Second compound 10 µM, first compound 0.00316 µM
  viability, T/C: 90.1%
Second compound 10 µM, first compound 0.01 µM
  viability, T/C: 87.1%
[25]
  viability, T/C: 69.9%
[26]
  viability, T/C: 47.6%
[27]
  viability, T/C: 23.1%
[28]
  viability, T/C: 13.9%

## CC1COCCN1c1cc(C2(S(C)(=N)=O)CC2)nc(-c2ccnc3[nH]ccc23)n1 (stereo not given) + Cc1ccccc1N=Nc1ccc(NC(=O)c2ccnn2C)c(C)c1
Second compound 0.1 µM
  IC50: 2510 nM
Second compound 0.316 µM
  IC50: 2070 nM
Second compound 1 µM
  IC50: 1820 nM
Second compound 3.16 µM
  IC50: 1880 nM
Second compound 10 µM
  IC50: 2030 nM
[1]
  viability, T/C: 84.6%
[2]
  viability, T/C: 85.4%
[3]
  viability, T/C: 84.3%
[4]
  viability, T/C: 66%
[5]
  viability, T/C: 46.6%
[6]
  viability, T/C: 23.2%
[7]
  viability, T/C: 101%
[8]
  viability, T/C: 90.5%
[9]
  viability, T/C: 88.3%
[10]
  viability, T/C: 68.1%
[11]
  viability, T/C: 38.9%
[12]
  viability, T/C: 25.7%
[13]
  viability, T/C: 81.7%
[14]
  viability, T/C: 78.2%
[15]
  viability, T/C: 82.2%
[16]
  viability, T/C: 61.7%
[17]
  viability, T/C: 38.2%
[18]
  viability, T/C: 21.2%
[19]
  viability, T/C: 83%
[20]
  viability, T/C: 82.4%
[21]
  viability, T/C: 77.2%
[22]
  viability, T/C: 64%
[23]
  viability, T/C: 38.5%
[24]
  viability, T/C: 24.2%
[25]
  viability, T/C: 82.6%
[26]
  viability, T/C: 81.5%
[27]
  viability, T/C: 78.7%
[28]
  viability, T/C: 67.8%
[29]
  viability, T/C: 39%
[30]
  viability, T/C: 25%

## COc1ccc([C@@H](O)c2cc(-c3ncnc4cc(N5CCOCC5)ccc34)c(F)cc2Cl)nn1 + Cc1ccccc1N=Nc1ccc(NC(=O)c2ccnn2C)c(C)c1
Second compound 0.1 µM
  IC50: 252 nM
Second compound 0.316 µM
  IC50: 562 nM
Second compound 1 µM
  IC50: 650 nM
Second compound 3.16 µM
  IC50: 666 nM
Second compound 10 µM
  IC50: 630 nM
[1]
  viability, T/C: 85.8%
[2]
  viability, T/C: 58%
[3]
  viability, T/C: 40.8%
[4]
  viability, T/C: 42.9%
[5]
  viability, T/C: 18.1%
[6]
  viability, T/C: 9.01%
[7]
  viability, T/C: 71.1%
[8]
  viability, T/C: 90.5%
[9]
  viability, T/C: 54.8%
[10]
  viability, T/C: 41.5%
[11]
  viability, T/C: 11.4%
[12]
  viability, T/C: 9.4%
[13]
  viability, T/C: 85.7%
[14]
  viability, T/C: 84%
[15]
  viability, T/C: 81.2%
[16]
  viability, T/C: 31.4%
[17]
  viability, T/C: 10.2%
[18]
  viability, T/C: 6.98%
[19]
  viability, T/C: 91.9%
[20]
  viability, T/C: 92.9%
[21]
  viability, T/C: 71.1%
[22]
  viability, T/C: 38.5%
[23]
  viability, T/C: 12.6%
[24]
  viability, T/C: 6.52%
[25]
  viability, T/C: 83.4%
[26]
  viability, T/C: 83.2%
[27]
  viability, T/C: 67.2%
[28]
  viability, T/C: 37.5%
[29]
  viability, T/C: 17.5%
[30]
  viability, T/C: 7.07%

## O=C(C=Cn1cnc(-c2cc(C(F)(F)F)cc(C(F)(F)F)c2)n1)NNc1cnccn1 + Cc1ccccc1N=Nc1ccc(NC(=O)c2ccnn2C)c(C)c1
Second compound 0.1 µM
  IC50: 97.1 nM
Second compound 0.316 µM
  IC50: 55.1 nM
Second compound 1 µM
  IC50: 51.9 nM
Second compound 3.16 µM
  IC50: 43.5 nM
Second compound 10 µM
  IC50: 61.8 nM
Second compound 0.1 µM, first compound 0.00949 µM
  viability, T/C: 88.7%
Second compound 0.1 µM, first compound 0.03 µM
  viability, T/C: 77.2%
Second compound 0.1 µM, first compound 0.0949 µM
  viability, T/C: 47.9%
Second compound 0.1 µM, first compound 0.3 µM
  viability, T/C: 30.3%
Second compound 0.1 µM, first compound 0.949 µM
  viability, T/C: 19.8%
Second compound 0.1 µM, first compound 3 µM
  viability, T/C: 13.3%
Second compound 0.316 µM, first compound 0.00949 µM
  viability, T/C: 74.7%
Second compound 0.316 µM, first compound 0.03 µM
  viability, T/C: 62.4%
Second compound 0.316 µM, first compound 0.0949 µM
  viability, T/C: 39.1%
Second compound 0.316 µM, first compound 0.3 µM
  viability, T/C: 21.9%
Second compound 0.316 µM, first compound 0.949 µM
  viability, T/C: 19.1%
Second compound 0.316 µM, first compound 3 µM
  viability, T/C: 16.2%
Second compound 1 µM, first compound 0.00949 µM
  viability, T/C: 56.9%
Second compound 1 µM, first compound 0.03 µM
  viability, T/C: 75.9%
Second compound 1 µM, first compound 0.0949 µM
  viability, T/C: 31.9%
Second compound 1 µM, first compound 0.3 µM
  viability, T/C: 17.9%
Second compound 1 µM, first compound 0.949 µM
  viability, T/C: 17.6%
Second compound 1 µM, first compound 3 µM
  viability, T/C: 20.2%
Second compound 3.16 µM, first compound 0.00949 µM
  viability, T/C: 70.5%
Second compound 3.16 µM, first compound 0.03 µM
  viability, T/C: 62%
Second compound 3.16 µM, first compound 0.0949 µM
  viability, T/C: 24.6%
Second compound 3.16 µM, first compound 0.3 µM
  viability, T/C: 29.8%
Second compound 3.16 µM, first compound 0.949 µM
  viability, T/C: 21.4%
Second compound 3.16 µM, first compound 3 µM
  viability, T/C: 19.4%
Second compound 10 µM, first compound 0.00949 µM
  viability, T/C: 73.8%
Second compound 10 µM, first compound 0.03 µM
  viability, T/C: 68.4%
Second compound 10 µM, first compound 0.0949 µM
  viability, T/C: 37.8%
Second compound 10 µM, first compound 0.3 µM
  viability, T/C: 29.6%
Second compound 10 µM, first compound 0.949 µM
  viability, T/C: 20.3%
Second compound 10 µM, first compound 3 µM
  viability, T/C: 18.8%

Source: PubChem BioAssay AID1919007 (Molecular Pharmacology Branch, DTP, NCI, 2023)
